Laboratory results taken from patent publication US20070270462A1, “8-hydroxyquinoline compounds for treating a polyglutamine (polyQ)-expansion disease” (priority 2005, published 2007).

How the values were obtained:
[1] = test system: Htt exon1-Q25-egfp; experiment: Fluorescence microscopy of transfected PC12 cells expressing Htt exon1-Q25-egfp; format: cell-based; conditions: CQ 4 μM, 48 hours post-transfection
From the text: (§1) PolyQ-htt-GFP fusion constructs, in which the polyglutamine region is encoded by CAA and CAG-containing tandem repeats ([…]) [SEQ ID NO: 1], human polyglutaminen, were obtained from the Hereditary Disease Foundation, Santa Monica, Calif., USA. PC12 and HEK293 cells were maintained in MEM supplemented with 10% v/v FBS, switched to Opti-MEM without serum for 6 hrs during transfection using Lipofectamine 2000 (Invitrogen, Carlsbad, Calif., USA), and returned to serum-containing medium thereafter (up to 48 hours). […] Control cultures received equivalent amounts of DMSO-containing vehicle (<0.1% w/v DMSO, final concentration).
Concordant with this reduction in mutant protein expression, cell survival was improved by CQ in a dose dependent fashion with a half maximal effect at 1-2 μM (FIG. 2b). Cell death began to increase at 8 μM, likely due to dose-dependent toxic effects of CQ.

[2] = test system: Htt exon1-Q103-egfp; experiment: Western blotting of cell extracts, Htt exon1-Q103-egfp expression; format: cell-based
From the text: as §1
HEK293 or PC12 cells were lysed in PBS buffer containing 1% v/v Triton X-100 and protease inhibitor cocktail (Roche, Indianapolis, Ind.), and passed through a 28 gauge needle to ensure the release of Htt inclusions from the nuclei. Whole mouse brains were homogenized in 50 mM Tris-HCl (pH 7.4), 150 mM NaCl, 1% v/v Triton X-100 and complete protease inhibitor cocktail. Brain homogenate was pre-cleared by centrifuging at 7,500 g for 90 s at 4° C. The supernatant was passed through a 28-gauge needle and boiled in SDS sample buffer for 10 min. Fifty μg of total protein was loaded onto 10% w/v SDS gel containing a 4% w/v stacking gel. […]

[3] = test system: Htt exon1-Q103-egfp; experiment: Proteasome inhibitor MG132 treatment of CQ-treated Htt exon1-Q103-egfp-expressing HEK293 cells; format: cell-based; conditions: pan-proteasome inhibitor MG132
Experimental: HEK293 or PC12 cells were lysed in PBS buffer containing 1% v/v Triton X-100 and protease inhibitor cocktail (Roche, Indianapolis, Ind.), and passed through a 28 gauge needle to ensure the release of Htt inclusions from the nuclei. Whole mouse brains were homogenized in 50 mM Tris-HCl (pH 7.4), 150 mM NaCl, 1% v/v Triton X-100 and complete protease inhibitor cocktail. Brain homogenate was pre-cleared by centrifuging at 7,500 g for 90 s at 4° C. The supernatant was passed through a 28-gauge needle and boiled in SDS sample buffer for 10 min. Fifty μg of total protein was loaded onto 10% w/v SDS gel containing a 4% w/v stacking gel. Monoclonal antibodies anti-polyglutamine (1:2,000), anti-GAPDH (1:10,000), anti-GFP (1:4,000), and anti-Htt (EM48) in 1:1000 dilution were used for immunoblotting. All western blot experiments were performed at least three times and band intensities were averaged.
In examining potential mechanisms for the effects of CQ on Htt accumulation, we considered the possibilities that CQ might act to inhibit Htt aggregation or directly influence Htt synthesis or degradation. […] Therefore, we focused on the aspects of Htt synthesis and turnover. To determine whether CQ might down-regulate polyQ-Htt expression at the transcriptional level, we examined the amount of Htt^exon1-Q103-egfp mRNA present after 48 hrs of transfection by Northern analysis. […]

[4] = test system: R6/2 mice; experiment: Foot clasping test in R6/2 mice; format: in vivo, mouse; conditions: R6/2 mice at 10 weeks
Experimental: A colony of transgenic mice strain R6/2 that is heterozygous for htt exon1 (containing 145 CAG repeats) was maintained, with founders originating and available from The Jackson Laboratory (Bar Harbor, Me., USA). Male transgenic R6/2 mice were bred with background strain (B6CBAFI/J) females. Genotyping was done according to Hockly et al, Brain Res Bull 61, 469-479, 2003. CQ in water was orally administered to mice at 30 mg/kg/day starting at 3 weeks of age and continued until the mice were deceased or sacrificed for tissues. Littermate R6/2 mice were gavaged with water vehicle alone. […] Blood glucose levels were determined after at least 8 hrs of fasting in 11-week old mice (n=6 for wild-type, n=4 for vehicle-treated R6/2, n=6 for CQ-treated R6/2 littermates) using a 2300 STAT Plus glucose analyzer (YSI, Yellowsonte, Ohio, USA). Fasting blood insulin levels in animals fasted for 8 hrs were measured using an Ultra Sensitive Rat Insulin ELISA Kit (Crystal Chem, Inc., Downers Grove, Ill., USA) according to manufacturer's instructions.
Rotarod performance (n≧6 for each treatment group) was assessed as described by Hockly et al., 2003 Supra with the modification that the SDI Rota-Rod (San Diego Instruments, San Diego, Calif.) was set to linearly increase in speed to 40 rpm in 4 min ramp time. […]

[5] = test system: R6/2 mice; experiment: Lifespan (survival) of R6/2 mice; format: in vivo, mouse; conditions: oral CQ 30 mg/kg/day
Experimental: A colony of transgenic mice strain R6/2 that is heterozygous for htt exon1 (containing 145 CAG repeats) was maintained, with founders originating and available from The Jackson Laboratory (Bar Harbor, Me., USA). Male transgenic R6/2 mice were bred with background strain (B6CBAFI/J) females. Genotyping was done according to Hockly et al, Brain Res Bull 61, 469-479, 2003. CQ in water was orally administered to mice at 30 mg/kg/day starting at 3 weeks of age and continued until the mice were deceased or sacrificed for tissues. Littermate R6/2 mice were gavaged with water vehicle alone. At the end of CQ treatment mice were anesthetized and transcardially perfused with PBS followed by 4% v/v paraformaldehyde. Blood glucose levels were determined after at least 8 hrs of fasting in 11-week old mice (n=6 for wild-type, n=4 for vehicle-treated R6/2, n=6 for CQ-treated R6/2 littermates) using a 2300 STAT Plus glucose analyzer (YSI, Yellowsonte, Ohio, USA). Fasting blood insulin levels in animals fasted for 8 hrs were measured using an Ultra Sensitive Rat Insulin ELISA Kit (Crystal Chem, Inc., Downers Grove, Ill., USA) according to manufacturer's instructions. […]

SMILES: Oc1c(I)cc(Cl)c2cccnc12 [CQ, 5-chloro-7-iodo-8-hydroxy-quinoline]
- fluorescent product of Htt exon1-Q25-egfp [1]: unaffected
- CQ concentration at which dose-dependent inhibition of Htt exon1-Q103-egfp expression begins [2]: 0.5 µM
- inhibition of Htt exon1-Q103-egfp expression ([2]; 2 μM CQ): 3.2 fold
- suppression of exon1-Q103-egfp protein production by CQ under MG132 treatment [3]: not affected
- average clasping score ([4]; score of 3 maximum, oral CQ 30 mg/kg/day): 1.3
- reduction of average clasping score ([4]; versus vehicle (2.5)): 48%
- average lifespan [5]: 92 days
- increase in longevity over the littermate control group [5]: 20%
